Series [1] is described as follows: Solid-state 15N-NMR (helix alignment in membrane). As to conditions: DMPC/DMPG (7/3); for NMR: orientational state of the helix: P/L = 1:100, oriented samples, solid-state 15N-NMR, 308 K. It is filed as physicochemical. The protocol: While OCD provides a rough picture of the peptide alignment, the helix tilt angle can be measured rather precisely by solid-state NMR using the same type of oriented membrane sample. […] If the peptides are not helical, then the orientation cannot be determined from these ^15N-NMR spectra (which is why CD/OCD need to be performed first), but other information may be available. Oriented NMR samples were prepared at a P/L of 1/100 in DMPC/DMPG (7/3), as for CD/OCD. The ^15N-NMR spectra of all latarcins are summarized in Figure 7, along with the corresponding ^31P-NMR spectra of the phospholipid component. […] This conclusion is supported by the vesicle leakage data above.
Ltc2a, with a chemical shift of 131 ppm, on the other hand, is distinctly tilted in the membrane, as was also observed in the OCD experiments. […] Ltc3a, with a chemical shift of 93 ppm, is tilted only slightly by 10–20°. […] Given that OCD had shown distinct signs of aggregation into β-sheets, we can conclude that Ltc6a binds to the membrane and perturbs the lipid bilayer, but it is not possible to determine the molecular alignment of Ltc6a when it has most likely formed aggregates.
Macroscopically oriented NMR samples were prepared by co-dissolving appropriate amounts of peptides and lipids (in 300 μL methanol, 100 μL CHCl3, and 10–20 μL Milli-Q water) and spreading them onto 23 thin glass plates of dimensions 9 mm × 7.5 mm × 0.08 mm (Marienfeld Laboratory Glassware, Lauda-Königshofen, Germany). The peptide-to-lipid ratio (P/L) is given in mol/mol. The plates were dried in air for 1 h, followed by drying under vacuum overnight. The plates were stacked and placed into a hydration chamber with 96% relative humidity at 48 °C for 18–24 h before wrapping the stack in parafilm and plastic foil for the NMR measurements. All solid-state NMR measurements were carried out on a Bruker Avance 500 MHz spectrometer (Bruker Biospin, Karlsruhe, Germany) at 308 K, as previously reported. The oriented membrane samples were placed in the flat-coil probe such that the lipid bilayer normal was aligned parallel to the magnetic field. ^31P-NMR was used to check the quality of the lipid orientation in the samples, using a Hahn echo sequence with phase cycling. The 90° pulse length was 3.9 µs, the echo time was 30 µs, and 17 kHz ^1H SPINAL64 decoupling was used. ^1H-^15N cross-polarization experiments using a CP-MOIST pulse sequence were performed using a double-tuned probe with a low-E flat-coil resonator (3 mm × 9 mm cross-section), employing a ^1H and ^15N radiofrequency field strength of 65 kHz during the cross-polarization and 25 kHz ^1H SPINAL16 [41] decoupling during acquisition. A mixing time of 500 μs was used, and 10,000 to 30,000 scans were accumulated. The acquisition time was 10 ms, and the recycle time was 3 s. The ^15N chemical shift was referenced using the ^1H-NMR signal of water in the sample.

A short description of series [2]: Oriented circular dichroism (helix alignment in membrane). It is filed as physicochemical. As to conditions: DMPC/DMPG (7/3), P/L = 1:100, oriented hydrated bilayers, 30 °C. For orientation: Circular dichroism is the unequal absorption of left and right circularly polarised light.
Excerpt: This is the same lipid composition and peptide-to-lipid ratio as was used in conventional CD above (see Figure 2), but in contrast to the vesicular samples containing excess water, the oriented membranes for OCD are just about saturated with water.
The sign and intensity of the 208 nm band provide a characteristic signature of the helix tilt angle in the membrane [19]. For a helical peptide that lies flat on the bilayer surface, this band is the most intense.
To prepare oriented CD (OCD) samples, latarcins depending on their solubility were dissolved either in pure MeOH or CHCl3/MeOH 1/1 (v/v) and thoroughly mixed with appropriate aliquots of DMPC/DMPG solutions (7/3 molar ratio) in the same solvent. Each co-dissolved mixture with a peptide-to-lipid molar ratio of 1/100 was deposited on a quartz glass plate using a gas-tight syringe. To achieve a spot size of 12.5 mm on the 20 mm diameter plates (Suprasil QS, Hellma Optik GmbH, Jena, Germany), a volume of ~55–60 µL was used. The organic solvents were evaporated in a gentle stream of air until the sample appeared dry. The amounts of deposited lipid and peptide on the plate were always 0.29 μmole and 2.9 nmole, respectively. The peptide-lipid-film was further dried under reduced pressure for at least 3 h. Afterwards, each plate with the dried sample was fixed and sealed by a polymer O-ring in a cylindrical sample holder. The plate with the sample and a second window plate without the sample formed a compartment for controlled hydration. The holder was assembled in a custom-built hydration cell. In the inner compartment of the sample holder, the peptide-lipid film was hydrated for about 15 h at 30 °C and 97% relative humidity via the gas phase by a saturated K2SO4 solution contained in an adjacent cavity of the hydration cell. During hydration, the lipids spontaneously align as lipid bilayers that are macroscopically oriented perpendicular to the glass surface. For the measurement, the holder was transferred to an OCD sample cell that had been developed and built in-house [20]. It is computer-controlled and can be integrated into a Jasco spectropolarimeter as an accessory. The optical path runs along the cylindrical axis of the cell, i.e., normal to the quartz glass plate surface carrying the oriented lipid film. To reduce possible spectral artifacts caused by linear dichroism (LD) or linear birefringence (LB) due to imperfections in the sample, strain in the quartz glass or imperfect alignment of the windows, the OCD spectra were recorded in steps of 45° by rotation of the cell around the beam axis [19, 20]. At each angle, two scans were recorded from 260–185 nm as an average, using a scan rate of 20 nm min^−1, 4 s response time, and 1 nm bandwidth.
Series [3] is described as follows: ANTS/DPX fluorescence vesicle leakage assay. The note with it: vesicle leakage of ANTS/DPX in POPC/POPG (1/1) LUVs, P/L = 1:50, 100 µM lipid, 10 min, 30 °C, pH 7.5. The protocol:
The ability of the peptides to induce leakage in large unilamellar vesicles (≈120 nm diameter) of POPC/POPG (1/1) was studied using a fluorescence assay using ANTS/DPX, as described previously.
For the leakage experiments, the buffer in which the vesicles were prepared contained the fluorophore ANTS (12.5 mM), the quencher DPX (45 mM), 50 mM NaCl, and 10 mM HEPES (pH 7.5). Liposomes were prepared by co-dissolving POPC/POPG 1/1 (mol/mol) lipids in CHCl3/MeOH (3/1 v/v), together with 10^−2 mol% Rhod-PE, by which the lipid loss during vesicle preparation (extrusion and gel filtration, see below) could be quantified. The peptide-to-lipid ratio (P/L) is given in mol/mol. The lipid mixture was dried under N2(g) and dried under vacuum for 2–4 h. The obtained thin film was then re-suspended in the buffer, which contained the fluorophore and the quencher, by vigorous vortexing, followed by 10 freeze–thaw cycles. Large unilamellar vesicles (LUV) were obtained by 41-fold extrusion (Avanti Mini Extruder; Avanti Polar Lipids, Alabaster, AL, USA) of the liposomes through a Nuclepore polycarbonate membrane (pore size 100 nm, Whatman-GE Healthcare Europe, Freiburg, Germany) at a temperature 20 °C above the lipid phase transition. […]
The leakage of entrapped ANTS was monitored by fluorescence dequenching of ANTS [18]. Fluorescence measurements were performed in a thermostated cuvette with constant stirring at 30 °C in the elution buffer used for gel filtration on a FluoroMax2 spectrofluorimeter (HORIBA Jobin Yvon, Unterhaching, Germany) by setting the ANTS excitation wavelength to 355 nm and its emission wavelength to 510 nm. Peptide stock solutions in water were prepared, and the peptide concentration was calculated from the weighed amount. […] The fluorescence signal was followed for 10 minutes, and after that time, Triton X-100 was added to completely disrupt the vesicles. The level of 0% leakage corresponded to the fluorescence of the vesicles immediately after their addition, while 100% leakage was the fluorescence value obtained after the addition of Triton X-100.
The synergy of the peptides towards vesicle leakage was investigated by pair-wise combinations of latarcins. The leakage was measured for each peptide alone at P/L = 1/100 and for peptide combinations at P/P/L = 1/1/100. The synergy factor, SF, is calculated according to:SF = L(P1 + P2)/[L(P1) + L(P2)].(1)
Here, L(P1) is the leakage of peptide 1 alone, L(P2) is the leakage of peptide 2 alone, and L(P1 + P2) is the leakage for the mixture of the peptides. […] The SF was determined separately for each batch of samples, and then the individual SF values were averaged.

Where “and” joins values, the source holds several entries; their conditions need not be identical. Equal values may be shown once.

With “G E TF D K L K E K L K TFYQ K LV E K A ED L K G D L K A K LS-acid [Ltc7]”, the “NMR: orientational state of the helix” value in series [1] is “Surface”. Further, the “OCD: orientational state of the helix” value in series [2] is “Surface”. For the same substance, the “% Leakage” value in series [3] is 50% and 54%.

As to “H-GFFGKMKEYFKKFGASFKRRFANLKKRL-NH2 [Ltc5]”, the “NMR: orientational state of the helix” value in series [1] is recorded as “Surface”. The “OCD: orientational state of the helix” value in series [2] is given as “Surface”.

H-GLKDKFKSMGEKLKQYIQTWKAKF-NH2 [Ltc4a]: the “% Leakage” value in series [3] is 20% and 22%.

With “H-QAFQTFKPDWNKIRYDAMKMQTSLGQMKKRFNL-OH [Ltc6a]”, in series [1], the “NMR: orientational state of the helix” value is reported as “Aggregated”. The “OCD: orientational state of the helix” value in series [2] was “Aggregated”. In addition, in series [3], the “% Leakage” value was 50% and 46%.

On to H-SWKSMAKKLKEYMEKLKQRA-NH2 [Ltc3a], for which, in series [1], the “NMR: orientational state of the helix” value was “Slight tilt”. Moreover, in series [1] (from 15N chemical shift, P/L 1/100), the “helix tilt angle away from the flat surface orientation” value is 10–20 °. Besides, the “OCD: orientational state of the helix” value in series [2] was “Slight tilt”. Further, in series [3], the “% Leakage” value was 20%.

The values above are taken from article PMC8470881, “Membrane Interactions of Latarcins: Antimicrobial Peptides from Spider Venom” (International Journal of Molecular Sciences, 2021).
